Among the test systems are CCRF-CEM leukemia; DU-145 prostate; HOP-92 NSCLC; K-562 leukemia; KM12 colon; NCI-H226 lung; NCI-H522 lung; OVCAR-8 ovarian; SF-539 CNS; SK-MEL-28 melanoma; SK-OV-3 ovarian; SNB-75 CNS; A498 renal; MDA-MB-435; MDA-MB-231 breast.
Holding throughout (test): NCI-60 cell line screen, 48 h

Among the data in PubChem BioAssay (NCI) are TGI and GI50 values, retold here.

“And” between values parts separate entries of the source, which are not always exact repeats. Equal values may be shown once.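 Method: 48-hour compound exposure of cells in 96-well plates, five concentrations, linear interpolation of endpoints. GI50: concentration for 50% inhibition of growth. At the TGI there is no net growth.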

In the case of `O=C1c2ccccc2C2=Nc3ccncc3CN12`, the TGI with CCRF-CEM leukemia, in the assay on DU-145 prostate, in the assay with HOP-92 NSCLC, in the assay with K-562 leukemia, in the assay on KM12 colon and in the assay with NCI-H226 lung was more than 100 µM throughout. The TGI in the assay with NCI-H522 lung, with OVCAR-8 ovarian, in the assay with SF-539 CNS, in the assay with SK-MEL-28 melanoma, with SK-OV-3 ovarian and with SNB-75 CNS was more than 100 µM each time.

Take `CCOC(=O)c1c(-c2ccc(O)c(OC)c2)c(C#N)c(=S)n(C2OC(COC(C)=O)C(OC(C)=O)C(OC(C)=O)C2OC(C)=O)c1-c1ccccc1` (stereo not drawn): the TGI in the assay on A498 renal, in the assay on CCRF-CEM leukemia, in the assay with DU-145 prostate, in the assay with HOP-92 NSCLC, with K-562 leukemia and with KM12 colon was more than 100 µM throughout. Moreover, the TGI in the assay with MDA-MB-435 is more than 100 µM; with NCI-H522 lung it was 51.3 µM and 54.4 µM; in the assay with SK-MEL-28 melanoma it was more than 100 µM. Also, the GI50 in the assay on K-562 leukemia is 49.1 µM and > 100 µM.

Consider `Cc1nn(-c2ccccc2)c2[nH]c(=S)cnc12`, for which the TGI in the assay on A498 renal, with CCRF-CEM leukemia, with DU-145 prostate, in the assay with HOP-92 NSCLC, with K-562 leukemia and in the assay with MDA-MB-435 was more than 100 µM throughout. Also, the TGI in the assay with NCI-H226 lung, in the assay with NCI-H522 lung, with OVCAR-8 ovarian, in the assay with SF-539 CNS, with SK-MEL-28 melanoma and with SK-OV-3 ovarian was more than 100 µM in each case.

With `Cc1ccc(S(=O)(=O)NC2C(=O)c3ccccc3C(=O)C2n2cnc3ccccc32)cc1` (stereo not drawn), the TGI in the assay on CCRF-CEM leukemia, in the assay on DU-145 prostate, in the assay with HOP-92 NSCLC, in the assay with K-562 leukemia, in the assay on KM12 colon and in the assay on MDA-MB-231 breast was more than 100 µM in each case. Further, the TGI with MDA-MB-435 was 36.4 µM; in the assay with NCI-H226 lung, more than 100 µM; in the assay on OVCAR-8 ovarian it was more than 100 µM; with SF-539 CNS it was 62.6 µM; in the assay with SK-MEL-28 melanoma it was more than 100 µM; in the assay on SK-OV-3 ovarian, more than 100 µM. Also, the TGI with SNB-75 CNS was more than 100 µM.

For `COc1cc(C2C3=C(COC3=O)Oc3cc4c(cc32)OCO4)ccc1OC(C)=O` (stereo not drawn), the TGI in the assay on A498 renal was more than 30.3 µM; in the assay on CCRF-CEM leukemia it was more than 49.6 µM; with DU-145 prostate it was more than 100 µM; with K-562 leukemia it was more than 38.7 µM; in the assay with KM12 colon it was 23.8 µM; in the assay on MDA-MB-231 breast it was 27.1 µM. Besides, the TGI in the assay with NCI-H226 lung is more than 100 µM; with OVCAR-8 ovarian, more than 56.4 µM; in the assay on SF-539 CNS, 0.749 µM; in the assay with SK-MEL-28 melanoma, more than 100 µM; in the assay on SK-OV-3 ovarian it was 0.909 µM; with SNB-75 CNS, 0.585 µM.

Turning to `Cc1ccc(NC(=O)CC(=O)n2nc(-c3ccccc3)c(N=Nc3ccccc3Cl)c2-c2ccccc2)cc1`, the TGI was more than 100 µM in the assay with A498 renal; more than 100 µM with CCRF-CEM leukemia; 63 µM with HOP-92 NSCLC; more than 100 µM in the assay with K-562 leukemia; more than 100 µM in the assay on KM12 colon; more than 100 µM in the assay on NCI-H522 lung. Also, the TGI was more than 100 µM in the assay on OVCAR-8 ovarian; more than 100 µM with SF-539 CNS; more than 100 µM in the assay with SK-MEL-28 melanoma; 60.5 µM with SK-OV-3 ovarian; 42.1 µM in the assay with SNB-75 CNS. Further, in the assay with KM12 colon, the GI50 is more than 100 µM.

Consider `CCCCCCCCCCCCC(O)C1CCC(C(O)CCCCCCC(O)CCCCCCCC2=CC(C)OC2=O)O1` (stereo not drawn), for which the TGI in the assay with A498 renal is more than 100 µM; with CCRF-CEM leukemia, 79.9 µM; in the assay on HOP-92 NSCLC, 72.1 µM; in the assay with K-562 leukemia, 40.6 µM; in the assay on KM12 colon, more than 100 µM; in the assay with MDA-MB-231 breast, more than 100 µM. Moreover, the TGI is more than 100 µM in the assay on MDA-MB-435; more than 100 µM with NCI-H226 lung; 56.9 µM in the assay with NCI-H522 lung; more than 100 µM with OVCAR-8 ovarian; more than 100 µM in the assay on SK-MEL-28 melanoma; more than 100 µM with SNB-75 CNS. Besides, the GI50 in the assay on CCRF-CEM leukemia is 15.4 µM; with MDA-MB-435, 27 µM; with SNB-75 CNS, 74.5 µM.

As to `CC1=NN(C(=O)c2ccccc2O)C(=O)/C1=C/c1ccccc1O`, the TGI in the assay with A498 renal is 0.124 µM; in the assay with CCRF-CEM leukemia, more than 100 µM; in the assay with HOP-92 NSCLC it was 28.5 µM; in the assay with K-562 leukemia it was more than 100 µM; in the assay on KM12 colon, more than 100 µM; with MDA-MB-231 breast, more than 100 µM. The TGI in the assay with MDA-MB-435 is more than 100 µM; with NCI-H226 lung it was 16.4 µM; in the assay on NCI-H522 lung it was 17.9 µM; in the assay with OVCAR-8 ovarian, 64.4 µM; in the assay with SF-539 CNS it was 2.45 µM; with SK-MEL-28 melanoma, more than 100 µM. The compound also came in with a TGI in the assay on SNB-75 CNS of more than 67.7 µM.

On to `CCCN1CN(C(C(=O)N[C@@H]2C(=O)N3C(C(=O)O)=C(C)CSC23)c2ccc(O)cc2)CSC1=S` (stereo partly drawn), for which the TGI with A498 renal, with CCRF-CEM leukemia, in the assay on HOP-92 NSCLC, in the assay with K-562 leukemia, in the assay on KM12 colon and with NCI-H522 lung was more than 100 µM each time. The TGI with OVCAR-8 ovarian, with SF-539 CNS, in the assay on SK-MEL-28 melanoma, with SK-OV-3 ovarian and with SNB-75 CNS was more than 100 µM throughout.

Take `COc1cc(Nc2cnc3cc(F)c(F)cc3n2)cc(OC)c1`: the TGI with A498 renal, with CCRF-CEM leukemia, with DU-145 prostate, in the assay on HOP-92 NSCLC, with KM12 colon and in the assay with MDA-MB-435 was more than 100 µM in each case. In addition, the TGI in the assay on NCI-H226 lung is more than 100 µM; in the assay with NCI-H522 lung, 42.4 µM; in the assay on OVCAR-8 ovarian, more than 100 µM; in the assay with SF-539 CNS, more than 100 µM; in the assay on SK-MEL-28 melanoma, more than 100 µM; with SK-OV-3 ovarian, 79.1 µM. In the assay with SNB-75 CNS, this compound had a TGI of 53.4 µM.
